Results published in PMC4626089, “In Vitro Mutational Analysis of the β2 Adrenergic Receptor, an In Vivo Surrogate Odorant Receptor” (PLoS ONE, 2015).

Legend:
[1] = system: rat I7 (rI7) OR, rI7(RDY); design: method as in PMID 16990513, PMID 25550517; settings: neurons expressing rI7(RDY); cited from earlier work
[2] = molecular target: mβ2AR::GFP fusion Y326A (Mus musculus, UniProt P18762, Y326A); experiment: cell-based; settings: read-out: Maximum response (% of mβ2AR::GFP)
Description: (§1) Calcium-based Fluorometric Imaging Plate Reader (FLIPR) experiments were performed as described previously. Mutants analyzed in each figure come from the same FLIPR experiment. […] Relative Fluorescent Units were baseline corrected by subtracting the lowest fluorescent measure for each experiment and a curve was fitted using a 3 parameters model (Hill Slope = 1) using the GraphPad software. Half maximal effective concentrations (EC50) were then calculated and are given in nM. The maximum response, as a percent of wild type, was calculated by reporting the span for a mutant over the span for the wild type.

[3] = molecular target: mβ2AR::GFP fusion mouse C327R (Mus musculus, UniProt P18762, C327R); experiment: cell-based; settings: read-out: Maximum response (% of mβ2AR::GFP)
Description: as §1

[4] = molecular target: mβ2AR::GFP fusion mouse E268A (Mus musculus, UniProt P18762, E268A); experiment: cell-based; settings: read-out: Maximum response (% of mβ2AR::GFP), span of mutant over span of wild type; Fig 4K
Description: as §1

[5] = molecular target: mβ2AR::GFP fusion mouse RDY (Mus musculus, UniProt P18762, D130R/R131D); experiment: cell-based; settings: Fig 4K
Description: as §1

[6] = molecular target: mβ2AR::GFP fusion no-NxS (N6A and N15A) (Mus musculus, UniProt P18762, N15A/N6A); experiment: cell-based; settings: read-out: Maximum response (% of mβ2AR::GFP)
Description: as §1

[7] = molecular target: mβ2AR::GFP fusion ΔCt➔E338 (Mus musculus, UniProt P18762); experiment: cell-based; settings: read-out: Maximum response (% of mβ2AR::GFP)
Description: as §1

[8] = molecular target: mβ2AR::GFP fusion ΔCt➔L339 (Mus musculus, UniProt P18762); experiment: cell-based; settings: read-out: Maximum response (% of mβ2AR::GFP)
Description: as §1

[9] = molecular target: mβ2AR::GFP fusion ΔCt➔Y350 (Mus musculus, UniProt P18762); experiment: cell-based; settings: read-out: Maximum response (% of mβ2AR::GFP)
Description: as §1

[10] = system: mβ2AR::GFP fusion M71-Nt/Y326A/ΔCt➔R328; settings: FLIPR dose response; Fig 6E and 6F, comparable to mock
Description: as §1

[11] = molecular target: mβ2AR::GFP fusion M71-Nt/mβ2AR/M71-Ct (Mus musculus, UniProt P18762); settings: span of mutant over span of wild type; Fig 7
Description: as §1

[12] = system: mβ2AR::GFP fusion NtΔ9AA/Y326A/ΔCt➔R328; settings: FLIPR dose response; Fig 6E and 6F, comparable to mock
Description: as §1

[13] = molecular target: mβ2AR::GFP fusion NtΔ9AA/mβ2AR/M71-Ct (Mus musculus, UniProt P18762); settings: span of mutant over span of wild type; Fig 7
Description: as §1

[14] = molecular target: mβ2AR::GFP fusion NtΔ9AA/ΔCt➔Y350/ΔC341 (Mus musculus, UniProt P18762, DEL341, form not given); settings: span of mutant over span of wild type; Fig 3
Description: as §1

[15] = molecular target: mβ2AR::GFP fusion Y326A/ΔCt➔R328 (Mus musculus, UniProt P18762, Y326A); settings: FLIPR dose response; Fig 6E, comparable to no plasmid-mock transfection
Description: as §1

[16] = molecular target: mβ2AR::GFP fusion mβ2AR/M71-Ct (Mus musculus, UniProt P18762); settings: span of mutant over span of wild type; Fig 7
Description: as §1

[17] = molecular target: mβ2AR::GFP fusion no-NxS/Y326A/ΔCt➔R328 (Mus musculus, UniProt P18762, N15A/N6A/Y326A); settings: FLIPR dose response; Fig 6E and 6F, comparable to mock
Description: as §1

[18] = molecular target: mβ2AR::GFP fusion ΔCt➔A335 (Mus musculus, UniProt P18762); settings: FLIPR dose response; Fig 5E
Description: as §1

[19] = molecular target: mβ2AR::GFP fusion ΔCt➔Q337 (Mus musculus, UniProt P18762); settings: FLIPR dose response; Fig 5E
Description: as §1

Structure (SMILES)	Ca2+ signals in response to octanal [1]	Emax [2]	Emax [3]	Emax [4]	Emax ([5]; read-out: Maximum response (% of mβ2AR::GFP), span of mutant over span of wild type)	Maximum response (% of mβ2AR::GFP) ([5]; span of mutant over span of wild type)	Emax [6]	Emax [7]	Emax [8]	Emax [9]	induction by isoprenaline [10]	Maximum response (% of mβ2AR::GFP) [11]	induction by isoprenaline [12]	Maximum response (% of mβ2AR::GFP) [13]	Maximum response (% of mβ2AR::GFP) [14]	capacity to signal after isoprenaline exposure [15]	Maximum response (% of mβ2AR::GFP) [16]	induction by isoprenaline [17]	isoprenaline-mediated responses [18]	isoprenaline-mediated responses [19]
CCCCCCCC=O [octanal]	do not show Ca^2+ signals																			
CC(C)NCC(O)c1ccc(O)c(O)c1 (centres unmarked) [Isoprenaline, isoprenaline]		89%	58%	51%	58%	~ 60%	120%	19%	27%	70%	not induced	32%	not induced	34%	77%	no capacity to signal	47%	not induced	do not find isoprenaline-mediated responses	do not find isoprenaline-mediated responses
